Laboratory results from patent publication US8242152B2, “Use of 4-[(4-thiazolyl)phenoxy]alkoxy-benzamidine derivatives for the prophylaxis and treatment of osteoporosis” (Dong Wha Pharmaceutical Co., Ltd., priority 2001, dated 2012).

Key:
[1] = test system: osteoclast differentiation; assay: Osteoclast differentiation, co-culture, TRAP(+)MNCs (Example 5); format: cell-based, mice; conditions: for inhibition at 0.01 µM / inhibition at 0.1 µM / inhibition at 1 µM: Mus musculus, Osteoclast, 144 h, day 6, read-out: % inhibitory action
Method: To investigate the effect of compounds on osteoclast differentiation, co-culture between bone marrow cells (2.5×10^5 cells/cm^2) and calvaria-derived osteoblastic cells (4×10^4 cells/cm^2) was conducted in the presence of 1.25(OH)2D3(10^−8 M) and dexamethasone (10^−7 M) with α-MEM containing 10% FBS (referred as “osteoclastic medium”). Bone marrow cells were isolated from the femora of 6-week-old ddY mice and primary osteoblastic cells were isolated from the calvariae of newborn ICR mice by sequential digestion with 0.2% collagenase. The medium was changed every two days with fresh osteoclastic medium. An index of osteoclast formation was determined by counting TRAP-positive multinucleated osteoclasts (TRAP(+)MNCs). On day 6, the cells were fixed with 10% formaldehyde and stained for TRAP. The number of TRAP(+) MNCs containing more than 6-7 nuclei was counted under a microscope (ZEISS Axiovert 25, Switzerland). The results are shown as the relative inhibitory activity (% inhibition) compared to the control group.

[2] = test system: osteoclast activity (resorption pits); assay: Bone resorption pit formation assay on dentine slice (Example 5); format: cell-based, mice; conditions: for inhibition at 0.01 µM / inhibition at 0.1 µM / inhibition at 1 µM: Mus musculus, Osteoclast, dentine slice, 24 h, read-out: Inhibitory activity (%)
Method: Method for evaluating the effects of the compounds on osteoclast activity: Multinucleated osteoclasts were developed on collagen gel plates by co-culture system as described. On day 6-8 of the co-culture, multinucleated OCLs were detached from plates by 0.2% collagenase treatment (“crude OCLs”). Crude OCLs suspended in α-MEM containing 10% FBS were placed on a dentine slice (4 mm diameter) in a 96-well culture plate. […] At the end of the incubation, cells were removed by 1 M NH4OH treatment and resorption pits formed (in the slices stained with Mayer's hematoxylin). Resorption pits were enumerated with an image analyzer and compared to the control group.

[3] = test system: Primary osteoblastic cells; assay: ALP activity in primary osteoblastic cells (Example 5); format: cell-based, ICR mice; conditions: 3 days
Method: Primary osteoblastic cells isolated from the calvariae of newborn ICR mice were grown to confluence in α-MEM containing 10% FBS. These cells were plated at a density of 1×10^5/ml in tissue culture dishes. After 24 h, cells were changed with a differentiation medium containing ascorbic acid (50 ug/ml) and β-glycerophosphate (10 mM) with or without the compounds and further cultured for 3 days. Cells were washed twice with PBS and harvested. For the measurement of ALP activity and total protein content, cells were extracted into 0.1% Triton X-100 in PBS containing 1 mM MgCl2 and centrifuged at 1.000×g for 5 minutes. Enzyme activity was determined in supernatants by colorimetric procedure using p-nitrophenyl phosphate (PNP) as a substrate at a wavelength of 405 nm and the protein content was determined by a Bio-Rad protein assay kit. The ALP unit was expressed as nmol PNP/ug protein/min.

osteoclast fusion [4] = assay: Fusion assay of prefusion osteoclasts (Example 2); format: cell-based, mice; conditions: Mus musculus, Osteoclast, 24 hrs; for inhibition at 0.08 µM / inhibition at 0.4 µM / inhibition at 2 µM / inhibition at 10 µM: read-out: Inhibitory action (%)
Source text: This assay is designed to evaluate the influences of each test substance in terms of osteoclast fusion during the differentiation process in which immature prefusion osteoclasts (pOC; osteoclast structure with one more nuclei) were transformed into mature multinucleated osteoclast (OCL) via cell to cell fusion (Gregg Wesolowski et al. Experimental Cell Research 219,679-686, 1995).
The prefusion osteoclast can be obtained via co-culture of both bone marrow cells and osteoblast, as prepared from Example 1. The mixture of both osteoblast (about 5×10^5 cells/plate) and bone marrow cells (about 1×10^7 cells/plate) were co-cultured in a 100 mm culture dish. Some differentiation factors, such as dexamethasone (10^−6M) and vitamin D3 (10^−9M), were added to the medium from the first day of culture. The medium was changed with a fresh medium containing differentiation factors every 2 days.
Since a great number of the prefusion osteoclasts having one or more nuclei in fusion process were formed during 4-day co-culture, the cells were separated and co-cultivation after 4 days. The medium was removed from the cells and with the addition of 0.2% collagenase solution (4 mL), the cells were incubated at 37° C. for 20 mins to separate the attachment cells. Since the majority of separated cells were osteoblasts, all osteoblasts were washed with PBS solution two or three times for their complete removal.
After the remaining prefusion osteoclasts were separated via reaction for 20 mins with the addition of echistatin containing 10% BSA, the cells were harvested by centrifuge.
The test substances diluted at each concentration were diluted at the desired concentration in α-MEM medium (addition of 10% FBS) to load them into a 96-well microplate in a dose of 100 uL per well. The osteoclastic monocytes, so separated from the preceding No. 1, were plated on a 96-well microplate in a dose of 5×10^3 cell/100 uL per well and cultured at 37° C. for 24 hrs, thus successfully resulting in the osteoclast fusion. In the case of specimen-free and positive controls, experiments were performed in the same manner as above.
The medium was removed from the cells and then the cells were washed once with PBS and fixed to a PBS solution containing 10% formalin for about 5 mins. The cells were again fixed to both ethanol and acetone (1/1) in a mixing solution for about 5 mins and dried off. The cells were further treated by TRAP staining solution for 15 mins and washed with water to observe the cells under the microscope. The TRAP-positive osteoclast counts, which were differentiated from monocyte to multinucleated cells (osteoclast having more than 10 nuclei) via fusion process, were measured.

osteoclast fusion [5] = assay: Osteoclast fusion assay with purified prefusion osteoclasts (Example 5); format: cell-based, mice; conditions: for inhibition at 0.08 µM / inhibition at 0.4 µM / inhibition at 2 µM / inhibition at 10 µM: read-out: Inhibitory action (%)
Method: The effect of the compounds on the fusion of osteoclasts was examined using purified prefusion osteoclasts (pOC, mononuclear and binuclear osteoclasts). Co-cultures of bone marrow cells (2×10^7 cells/dish) and newborn mice calvariae (1×10^6 cells/dish) were maintained in 100-mm-diameter dishes for 4 days with osteoclast differontiarion factor. Cultures were washed twice with PBS and treated with 0.1% collagenase/dispase at 37° C. for 20 minutes. Released cells, mostly osteoblasts, were removed with a pipet and the plates were washed three times with PBS. The remaining cells were incubated with 30 uM echistatin in α-MEM containing 1% BSA for 20 min at 37° C. These cells were collected, pelleted, and washed once with α-MEM containing 10% FBS. The cells released by this treatment were the subject of the fusion assay. More than 90% of the cells in the pOCs preparation used in the present study were positive for TRAP.
pOCs (15,000 cells/well) were plated on 96 well culture plates with or without various compounds. After culture for 18 hours, the cells were fixed and stained for TRAP.

[6] = Mus musculus, Osteoclast, 18 hours

In the case of Cc1nc(-c2ccc(OCCCCCOc3ccc(C(=N)N)cc3)cc2)c(C(C)C)s1 [DW1352, 4-{5-[4-(5-isopropyl-2-methyl-1,3-thiazol-4-yl)phenoxy]pentoxy}-benzamidine], the inhibition at 0.01 µM [1] is reported as 27.1%, the inhibition at 0.1 µM [1] is reported as 41.3% and the inhibition at 1 µM [1] is reported as 80.9%. For the same molecule, the “times stronger inhibition of osteoclast differentiation than DW1351” value ([1]; versus DW1351, Table 8) was “about 1.35 times”, the inhibition at 0.01 µM [2] was 21.7% and the inhibition at 0.1 µM [2] was 36%. For the same molecule, the inhibition at 1 µM [2] was 64.1%, the “times more inhibition of osteoclast activity than DW1351” value ([2]; versus DW1351, Table 10) was “about 1.35 times” and the “ALP activity (% of control)” value ([3]; 0.01 uM) was 113.0 % of control. For the same molecule, the “ALP activity (Unit)” value ([3]; 0.01 uM) was 19.2 nmol PNP/ug protein/min, the “ALP activity (% of control)” value ([3]; 0.1 uM) was 111.7 % of control and the “ALP activity (Unit)” value ([3]; 0.1 uM) was 19.1 nmol PNP/ug protein/min. It also gave an inhibition at 0.08 µM (osteoclast fusion [4]) of 5.13%, an inhibition at 0.4 µM (osteoclast fusion [4]) of 24.7% and an inhibition at 2 µM (osteoclast fusion [4]) of 87.2%. It also gave an inhibition at 10 µM (osteoclast fusion [4]) of 99%, an IC50 (osteoclast fusion [4]) of 740 nM and an inhibition at 0.08 µM (osteoclast fusion [5]; [6]) of 5.13%. The inhibition at 0.4 µM (osteoclast fusion [5]; [6]) was 24.7%, the inhibition at 2 µM (osteoclast fusion [5]; [6]) was 87.2% and the inhibition at 10 µM (osteoclast fusion [5]; [6]) was 99%. The IC50 (osteoclast fusion [5]; [6]) was 740 nM and the “times more inhibition of osteoclast fusion than DW1351” value (osteoclast fusion [5]; versus DW1351) was 2.3 times.
COc1cc(C(=O)N(C(C)C)C(C)C)ccc1OCCCCOc1ccc2c(N)noc2c1 [HS1141, N,N-diisopropyl-4-[4-(3-aminobenzo[d]isooxazole-6-yloxy)butoxy]-3-methoxybenzamide] showed an inhibition at 0.01 µM [1] of 11.4%, an inhibition at 0.1 µM [1] of 36.4% and an inhibition at 1 µM [1] of 72.9%. For the same molecule, the inhibition at 0.01 µM [2] was 8.2%, the inhibition at 0.1 µM [2] was 22.7% and the inhibition at 1 µM [2] was 52.7%. The “ALP activity (% of control)” value ([3]; 0.01 uM) was 117.3 % of control, the “ALP activity (Unit)” value ([3]; 0.01 uM) was 19.9 nmol PNP/ug protein/min and the “ALP activity (% of control)” value ([3]; 0.1 uM) was 120.9 % of control. For the same molecule, the “ALP activity (Unit)” value ([3]; 0.1 uM) was 21.0 nmol PNP/ug protein/min, the inhibition at 0.08 µM (osteoclast fusion [4]) was 2.1% and the inhibition at 0.4 µM (osteoclast fusion [4]) was 12.3%. The inhibition at 2 µM (osteoclast fusion [4]) was 15.7%, the inhibition at 10 µM (osteoclast fusion [4]) was 36.3% and the inhibition at 0.08 µM (osteoclast fusion [5]; [6]) was 2.1%. For the same molecule, the inhibition at 0.4 µM (osteoclast fusion [5]; [6]) was 12.3%, the inhibition at 2 µM (osteoclast fusion [5]; [6]) was 15.7% and the inhibition at 10 µM (osteoclast fusion [5]; [6]) was 36.3%.
